Positions count from the first letter of the chain named. Read-outs that look alike come from different tables or passages of the source.
How the values were obtained:
human BLVRB [1] = target: T1, human BLVRB (Homo sapiens, UniProt P30043); test: NMR titration ([…]-HSQC); type: binding
T1 construct: pET21
T1 sequence (P30043 2-206): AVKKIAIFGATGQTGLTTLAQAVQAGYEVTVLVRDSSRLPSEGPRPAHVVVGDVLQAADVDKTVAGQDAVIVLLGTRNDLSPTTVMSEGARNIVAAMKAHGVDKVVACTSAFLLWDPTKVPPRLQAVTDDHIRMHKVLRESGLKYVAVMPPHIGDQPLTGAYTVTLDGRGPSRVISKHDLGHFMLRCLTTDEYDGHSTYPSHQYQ

hyrax BLVRB = target: T2, hyrax BLVRB; test: NMR titration ([…]-HSQC); parameters: species or system Procavia capensis; details: holo form, bis-tris pH 6.5, 20 °C, 900 MHz
T2 construct: pET21

human BLVRB [2] = target: T1, human BLVRB; test: NMR titration ([…]-HSQC); details: bis-tris pH 6.5; weak binding
human BLVRB [3] = target: T1, human BLVRB; test: isothermal titration calorimetry; type: binding
Source text: (§1) isothermal titration calorimetry on human BLVRB

human BLVRB [4] = target: T3, human BLVRB (Homo sapiens, UniProt P30043, T164S); test: isothermal titration calorimetry; type: binding
T3 construct: pET21
T3 sequence (P30043 2-206 T164S): T1 sequence (P30043 2-206) with T163S
Source text: as §1

Aedes aegypti BLVRB = target: T4, Aedes aegypti BLVRB (Aedes aegypti, UniProt Q16FC8); test: NMR spectra ([…]-HSQC) apo versus NADP+; type: binding; details: complex unstable over hours at room temperature
T4 construct: gene 5565330
T4 sequence (Q16FC8 1-205): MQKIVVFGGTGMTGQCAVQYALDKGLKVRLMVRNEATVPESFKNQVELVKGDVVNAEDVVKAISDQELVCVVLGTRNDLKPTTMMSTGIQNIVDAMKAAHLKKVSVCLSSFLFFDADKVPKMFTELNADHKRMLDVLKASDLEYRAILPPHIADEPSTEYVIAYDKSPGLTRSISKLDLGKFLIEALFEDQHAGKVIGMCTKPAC

Compound: C=CC1=C(C)/C(=C/c2[nH]c(Cc3[nH]c(/C=C4\NC(=O)C(C)=C4CCC(=O)O)c(CCC(=O)O)c3C)c(C)c2C=C)NC1=O (mixture of isomers) [bilirubin-β]
- Kd (human BLVRB [1]; read-out: binding affinity): 26.8 ± 9.1 µM
- Kd (hyrax BLVRB; NADP+ 1 mM, read-out: binding affinity): 19.5 ± 7.4 µM

Compound: C=CC1=C(C)/C(=C/c2[nH]c(Cc3[nH]c(/C=C4\NC(=O)C(C)=C4C=C)c(C)c3CCC(=O)O)c(CCC(=O)O)c2C)NC1=O [BR-α]
- binding affinity (human BLVRB [2]): a titration of human BLVRB with BR-α revealed an expected weak binding affinity

Compound: Cc1cc2nc3c(=O)[nH]c(=O)nc-3n(C[C@H](O)[C@H](O)[C@H](O)COP(=O)(O)OP(=O)(O)OC[C@H]3O[C@@H](n4cnc5c(N)ncnc54)[C@H](O)[C@@H]3O)c2cc1C [FAD]
- Kd (human BLVRB [1]; read-out: Kd): 283 ± 13.5 µM
- Kd (hyrax BLVRB; read-out: Kd): 496 ± 22.6 µM

Compound: NC(=O)C1=CN([C@@H]2O[C@H](COP(=O)(O)OP(=O)(O)OC[C@H]3O[C@@H](n4cnc5c(N)ncnc54)[C@H](OP(=O)(O)O)[C@@H]3O)[C@@H](O)[C@H]2O)C=CC1 [NADPH]
- Kd (human BLVRB [3]; read-out: Kd (nM) with NADPH): 130 ± 10 nM
- Kd (human BLVRB [4]; read-out: Kd (nM) with NADPH): 110 ± 10 nM

Compound: NC(=O)c1ccc[n+]([C@@H]2O[C@H](COP(=O)(O)OP(=O)(O)OC[C@H]3O[C@@H](n4cnc5c(N)ncnc54)[C@H](OP(=O)(O)O)[C@@H]3O)[C@@H](O)[C@H]2O)c1 [NADP^+]
- NMR spectra (15N-HSQC) apo versus NADP+ (Aedes aegypti BLVRB): gave rise to good dispersion upon NADP^+ binding
- Kd (human BLVRB [3]; read-out: Kd (nM) with NADP^+): 190 ± 5 nM
- Kd (human BLVRB [4]; read-out: Kd (nM) with NADP^+): 130 ± 10 nM
